Test results published in the NIST ThermoML archive (doi:10.1021/je400272k).

Assay: wn = mass fraction of the nth substance listed
Conditions: Liquid, Vibrating tube method

CCCC[N+](CCCC)(CCCC)CCCC.[Br-] [tetrabutylammonium bromide] + O
mass density [kg/m3]
Conditions	283.15 K	285.15 K	288.15 K	291.15 K	293.15 K	298.15 K	303.15 K
100 kPa, w1 = 0.1	1008.7	1008.3	1007.6	1006.7	1006.2	1004.9	1003.2
100 kPa, w1 = 0.14	1012.9	1012.6	1011.6	1010.9	1010	1008.4	1006.3
100 kPa, w1 = 0.2	1019.9	1019.3	1018.1	1017	1016.3	1014.2	1011.9
100 kPa, w1 = 0.3	–	–	1029	1027.4	1026.3	1023.7	1020.7
100 kPa, w1 = 0.4	–	–	1038.5	1036.7	1035.3	1031.9	1028.6
1000 kPa, w1 = 0.1	–	–	1008	1007.1	1006.7	1005.3	1003.7
1000 kPa, w1 = 0.14	–	–	1012.1	1011.2	1010.4	1008.7	1006.6
1000 kPa, w1 = 0.2	–	–	1018.6	1017.4	1016.7	1014.5	1012.4
1000 kPa, w1 = 0.3	–	–	1029.4	1027.7	1026.8	1024	1021.2
1000 kPa, w1 = 0.4	–	–	1039	1037	1035.7	1032.3	1029.2
2000 kPa, w1 = 0.1	–	–	1008.4	1007.6	1007	1005.7	1004.1
2000 kPa, w1 = 0.14	–	–	1012.5	1011.6	1010.8	1009.1	1007
2000 kPa, w1 = 0.2	–	–	1019	1017.8	1017	1014.9	1012.8
2000 kPa, w1 = 0.3	–	–	1029.7	1028.1	1027.1	1024.4	1021.6
2000 kPa, w1 = 0.4	–	–	1039.4	1037.4	1036	1032.7	1029.5
3000 kPa, w1 = 0.1	–	–	1008.9	1008	1007.5	1006.1	1004.5
3000 kPa, w1 = 0.14	–	–	1012.9	1012	1011.2	1009.5	1007.4
3000 kPa, w1 = 0.2	–	–	1019.4	1018.2	1017.5	1015.3	1013.2
3000 kPa, w1 = 0.3	–	–	1030.1	1028.5	1027.5	1024.8	1022
3000 kPa, w1 = 0.4	–	–	1039.7	1037.8	1036.4	1033	1029.9
4000 kPa, w1 = 0.1	–	–	1009.2	1008.4	1007.9	1006.5	1005
4000 kPa, w1 = 0.14	–	–	1013.3	1012.4	1011.6	1009.9	1007.7
4000 kPa, w1 = 0.2	–	–	1019.7	1018.6	1017.8	1015.7	1013.6
4000 kPa, w1 = 0.3	–	–	1030.4	1028.8	1027.9	1025.1	1022.4
4000 kPa, w1 = 0.4	–	–	1040.1	1038.1	1036.8	1033.3	1030.3
5000 kPa, w1 = 0.1	–	–	1009.7	1008.7	1008.3	1006.9	1005.4
5000 kPa, w1 = 0.14	–	–	1013.7	1012.7	1012.1	1010.3	1008.1
5000 kPa, w1 = 0.2	–	–	1020.1	1018.8	1018.2	1016.1	1014
5000 kPa, w1 = 0.3	–	–	1030.7	1029.1	1028.2	1025.5	1022.7
5000 kPa, w1 = 0.4	–	–	1040.4	1038.4	1037.1	1033.7	1030.7
